The record followed here is patent publication US20260176284A1, “Compounds with Anti-KRAS Mutated Tumor Activity” (Trasveda Ltd., priority 2022, published 2026).

The test system of assay [1] is KRAS G12D mutated AGS human gastric adenocarcinoma cells. In words: Proliferation inhibition of KRAS G12D mutant AGS cells (CellTiter-Glo, 3 days; IC50 and single-point inhibition rate at 1 μM). It counts as cell-based. As to conditions: 72 h, 3 days incubation, max concentration 10 μM. Here is the method:
This experiment assessed and validated the proliferation inhibitory activity of some compounds of the present invention against KRAS G12D mutant AGS cells.
Incubate at 37° C., 5% CO2, 95% humidity.
The following materials, instruments, and reagents were used in this experiment: Fetal Bovine Serum FBS (GIBCO, Cat #10099-141); CellTiter-Glo® Luminescent Cell Viability Assay (Promega, Cat #G7572); 96-well clear flat-bottom black-wall plate (Corning®, Cat #3603); SpectraMax multimode microplate reader (MD, 2104-0010A); CO2 Incubator (Thermo Scientific, Model 3100 Series); Biosafety cabinet (Thermo Scientific, Model 1300 Series A2); Inverted microscope (Olympus, CKX41SF); AGS cell line was purchased from Nanjing Kebai Biotechnology Co., Ltd., under the lot number CBP60476.
Cell culture and inoculation: The cells in the logarithmic growth phase were harvested, and cell counting was performed using a platelet counter. The cell viability was detected by Trypan Blue exclusion method to ensure that the cell viability was above 90%. The cell concentration was adjusted. Then, 90 μL of the cell suspension was added to each well of a 96-well plate respectively, and the cells in the 96-well plate were cultured at 37° C. and 5% CO2.
Drug dilution and addition: a) For the preparation of drugs for single-point inhibition rate determination: A 10-fold concentrated drug solution was prepared. 10 μL of the drug solution was added to each well of the 96-well plate inoculated with cells to make the working concentration 1 μM, and three replicate wells were set for each drug concentration; b) For the preparation of drugs for IC50 determination: A 10-fold concentrated drug solution was prepared. 10 μL of the drug solution was added to each well of the 96-well plate inoculated with cells to make the maximum working concentration 10 μM, with a 3.16× dilution and a total of 9 concentrations. Three replicate wells were set for each drug concentration. The cells in the 96-well plate with the added drugs were incubated at 37° C. and 5% CO2 for another 3 days, and then the CTG assay was performed.
The CTG reagent was thawed, and the cell plate was equilibrated to room temperature for 30 minutes. An equal volume of CTG solution was added to each well, and the plate was shaken on an orbital shaker for 5 minutes to lyse the cells. The cell plate was placed at room temperature for 20 minutes to stabilize the luminescence signal, and then the luminescence value was read.
The data were analyzed using GraphPad Prism 7.0 software. The data were fitted by nonlinear S-curve regression to obtain the dose-response curve, and the IC50 value was calculated accordingly.

In assay [2] the test system is KRAS G12D mutated AGS (3D) cells. Kind of assay: Proliferation inhibition of KRAS G12D mutated AGS (3D) cells (methylcellulose 3D culture, CTG, 120 h). Format: cell-based. As to conditions: Homo sapiens. As for the experimental part:
The inhibitory effect of representative compounds on the 3D proliferation of the AGS cell line was evaluated by non-adherent, spherical growth in a methylcellulose 3D culture medium.
The following materials, instruments and reagents were used in this experiment: Culture medium RPMI1640 (HyClone, Cat #SH30809.01); Fetal bovine serum FBS (GBICO, Cat #10099-141); CellTiter-Glo® Luminescent Cell Viability Assay (Novozymes Nanjing, Cat #DD1101-04); 96-well Polystyrene microplates (black-wall) (Greiner Bio one, Cat. #655096); Methylcellulose (SIGMA, CAS: 9004-67-5); AGS cells (KC-0405, Kangyuan Bochuang Biotechnology (Beijing) Co., Ltd.); Multifunctional microplate reader (BMG LABTECH, CLARIOstar® Plus); CO2 incubator (Thermo Scientific, Model 3100 Series).
Cell Culture and Inoculation: The cells in the logarithmic growth phase were harvested and cell counting was performed using a platelet counter. The cell viability was detected by Trypan Blue exclusion method to ensure that the cell viability was above 90%. The cell concentration was adjusted. After there were no visible air bubbles in the cell suspension, 180 μL of the cell suspension was added to each well of a 96-well plate respectively, so that the final concentration of methylcellulose was 0.65% and the number of cells was 2400 per well. The cells in the 96-well plate were cultured overnight at 37° C., 5% CO2 and 95% humidity.
The drug dilution and administration were carried out as follows: A 10-fold concentrated drug solution was prepared with the culture medium. 20 μL of the drug solution was added to each well of the 96-well plate inoculated with cells to make the maximum working concentration 10 μM, with a 3.16× dilution, a total of 9 concentrations. Three replicate wells were set for each drug concentration and the DMSO content was 0.1%. The cells in the 96-well plate with the added drugs were continuously cultured at 37° C., 5% CO2 and 95% humidity for 120 h, and then a CTG analysis was performed.
The CTG reagent was thawed and the cell plate was equilibrated to room temperature for 30 minutes. An equal volume of CTG solution was added to each well, and the plate was shaken on an orbital shaker for 5 minutes to lyse the cells. The cell plate was placed at room temperature for 20 minutes to stabilize the luminescence signal, and then the luminescence value was read.
The data were analyzed using GraphPad Prism 7.0 software. The data were fitted by nonlinear S-curve regression to obtain the dose-response curve, and the IC50 value was calculated accordingly. Cell survival rate (%)=(LumTest drug−LumMedium control)/(LumCell control−LumMedium control)×100%.

Assay [3] has as its system KRAS G12D mutated AGS human gastric adenocarcinoma cells. Kind of assay: Proliferation inhibition of KRAS G12D mutant AGS cells, another experiment with similar protocol (includes MRTX1133). It counts as cell-based. As for the experimental part:
In another experiment, using a protocol similar to the one described above, the inhibitory activity of some representative compounds of the present invention against KRAS G12D mutated AGS human gastric adenocarcinoma cells was determined.
The synthesis of compound MRTX1133 was performed according to the method described in J. Med. Chem. 2022, 65, 4, 3123-3133.

Another assay relates to GP2D cells. Kind of assay: 3D proliferation inhibition of KRAS G12D mutated tumor cells, GP2D. As to conditions: 3D methylcellulose culture, CTG, 120 hours. It counts as cell-based, human. The text has this:
(§1) This experiment evaluated and verified the proliferation inhibitory activity of the representative compounds of the present invention against the following five strains of KRAS-related tumor cells.
(§2) The following materials, reagents and instruments were used in this experiment: Five strains of cells were all from Nanjing Kebai Biotechnology Co., Ltd. (GP2D, CBP60010; HPAC, CBP60539; AsPC-1, CBP60546; KP-4, CBP60541; Panc 04.03, CBP60683); DMEM (Gibco, 11965092); RPMI-1640 (Gibco, SH30809.01); HPAC complete medium (Cobioer, CBP60539M); Fetal bovine serum FBS (Gibco, 10091-148); Insulin (Gibco, 41400045); Methylcellulose (methylcellulose, Sigma, 9004-67-5); Phosphate-buffered saline DPBS (Comning, 21-031-CVC); CellTiter-Glo® Luminescent Cell Viability Assay (Promega, Cat #G7573); 96-well clear flat-bottom black-wall plate (Corning, 3603); EnVision multilabel plate reader (PerkinElmer #2105); CO2 incubator (Thermo Scientific, Model 3 71 Series).
(§3) A sterilized 1% methylcellulose 3D culture medium was prepared in advance. The cells in the logarithmic growth phase were harvested, and a Countstar automatic cell counter based on the principle of the classic trypan blue staining method was used for cell counting and detecting cell viability to ensure that the cell viability was above 90%. The cell concentrations of GP2D, HPAC, AsPC-1, KP-f4, and Panc 04.03 were adjusted so that the final concentration of methylcellulose was 0.65%, and the mixture was allowed to stand after being well-mixed. After there were no visible air bubbles in the cell suspension, 80 μL of the cell suspension was added to each well of a 96-well plate, with a total of 1000-2000 cells. The cells in the 96-well plate were cultured overnight at 37° C., 5% CO2, and 95% humidity.
(§4) Drug Preparation for IC50 Determination: First, a 10 mM DMSO stock solution of each compound was prepared. For the first dilution, using DMSO as the solvent, each compound was first diluted to 5 mM and then serially diluted 3-fold to obtain 9 concentrations, preparing DMSO solutions of each compound at different concentrations. For the second dilution, a 5-fold diluted solution of each compound was prepared by a 1:100 dilution, using the complete medium as the solvent. […]
(§5) The cells in the 96-well plate with the added drugs were further cultured at 37° C. and 5% CO2 for 120 hours, and then a CTG analysis was performed. […] The cell plate was placed at room temperature for 20 minutes to stabilize the luminescence signal. The luminescence value was read, and the data were collected.
(§6) The data were analyzed using GraphPad Prism 9.0 software. Non-linear S-curve regression was used to fit the data to obtain the dose-response curve, and the IC50 value (nM) was calculated accordingly. […]

The next assay deals with HPAC cells. Kind of assay: 3D proliferation inhibition of KRAS G12D mutated tumor cells, HPAC. It counts as cell-based, human. The settings on record: 3D methylcellulose culture, CTG, 120 hours.
Text: as §1, §2, §3, §4, §5, §6

A further assay concerns KP-4 cells. In words: 3D proliferation inhibition of KRAS G12D mutated tumor cells, KP-4. It counts as cell-based. As to conditions: CTG, 120 hours.
Text: as §1, §2, §3, §4, §5, §6

For the next assay, the system named is Panc 04.03 cells. Kind of assay: 3D proliferation inhibition of KRAS G12D mutated tumor cells, Panc 04.03. The settings on record: CTG, 120 hours. It counts as cell-based.
Text: as §1, §2, §3, §4, §5, §6

For another assay, the system named is AsPC-1 cells. In words: 3D proliferation inhibition of KRAS G12D mutated tumor cells, AsPC-1. It counts as cell-based. As to conditions: Homo sapiens, ASPC1, 3D methylcellulose culture, CTG, 120 hours.
Text: as §1, §2
A sterilized 1% methylcellulose 3D culture medium was prepared in advance. The cells in the logarithmic growth phase were harvested, and a Countstar automatic cell counter based on the principle of the classic trypan blue staining method was used for cell counting and detecting cell viability to ensure that the cell viability was above 90%. The cell concentrations of GP2D, HPAC, AsPC-1, KP-f4, and Panc 04.03 were adjusted so that the final concentration of methylcellulose was 0.65%, and the mixture was allowed to stand after being well-mixed. […]
as §5, §6

For orientation: IC50 means the point on the concentration scale where inhibition reaches its midpoint. Low values mean greater potency, high ones weaker potency.

For the compound `C#Cc1c(F)ccc2cc(O)cc(-c3c(F)cc4c(N5CC6CCC(C5)N6)nc(OC[C@]5(C)CN(CC=C)CCC5(F)F)nc4c3F)c12` (atropisomer, axis not shown; (Ra)) [Example 42], the IC50 in assay [1] was 0.15 µM; in assay [2], 0.047 µM.
`CN1CC/C(=C\F)[C@](C)(COc2nc(N3C[C@H]4CC[C@@H](C3)N4)c3cc(Cl)c(-c4c(F)ccc5sc(N)c(C#N)c45)c(F)c3n2)C1` (single isomer, unassigned) [Example 324-1]: the IC50 in assay [3] was determined as 0.004 µM; in the assay with GP2D cells, 0.00039 µM; in the assay with HPAC cells, 0.0041 µM; with KP-4 cells (3D methylcellulose culture), 0.00474 µM; in the assay with Panc 04.03 cells (3D methylcellulose culture), 0.00134 µM.
`C#Cc1c(F)ccc2cc(O)cc(-c3c(F)cc4c(N5CC6CCC(C5)N6)nc(OC[C@]5(C)CN(CC)CCC5(F)F)nc4c3F)c12` (atropisomer, axis not shown; (Ra)) [Example 43, (Ra)-4-(4-((1R,5S)-3,8-diazabicyclo[3.2.1]octan-3-yl)-2-(((S)-1-ethyl-4,4-difluoro-3-methylpiperidin-3-yl)methoxy)-6,8-difluoroquinazolin-7-yl)-5-ethynyl-6-fluoronaphthalen-2-ol]: the IC50 in assay [1] turned out to be 0.037 µM; in assay [2], 0.011 µM.
Regarding `C#Cc1c(F)ccc2cc(O)cc(-c3ncc4c(N5CC6CCC(C5)N6)nc(OC[C@@]56CCCN5C[C@H](F)C6)nc4c3F)c12` [MRTX1133, reference compound], the IC50 in assay [3] (Homo sapiens) came out at 0.028 µM; in the assay on GP2D cells (Homo sapiens, GP2d), 0.003 µM; in the assay on HPAC cells (Homo sapiens, HPAC), 0.00819 µM; with AsPC-1 cells, 0.0183 µM; in the assay with KP-4 cells (Homo sapiens, KP-4, 3D methylcellulose culture), 0.0426 µM; with Panc 04.03 cells (Homo sapiens, Panc 04.03, 3D methylcellulose culture) it was 0.0206 µM.
Take `C#Cc1c(F)ccc2cc(O)cc(-c3c(F)cc4c(N5CC6CCC(C5)N6)nc(OC[C@]5(C)CN(C)CCC5(F)F)nc4c3F)c12` [Example 6-2]: the IC50 was 0.032 µM in assay [1] and 0.017 µM in assay [2].
The corresponding values for `C#Cc1c(F)ccc2cc(O)cc(-c3c(F)cc4c(N5CC6CCC(C5)N6)nc(OC[C@]5(C)CN(CCF)CCC5(F)F)nc4c3F)c12` (atropisomer, axis not shown; (Ra)) [Example 44, (Ra)-4-(4-((1R,5S)-3,8-diazabicyclo[3.2.1]octan-3-yl)-2-(((S)-4,4-difluoro-1-(2-fluoroethyl)-3-methylpiperidin-3-yl)methoxy)-6,8-difluoroquinazolin-7-yl)-5-ethynyl-6-fluoronaphthalen-2-ol] are 0.217 µM and 0.118 µM.
